Reference: patent US20020183937A1, “Method for the generation of proteins with new enzymatic function” (priority 2001, published 2002)

Tests used:
[1] = target: T1, PZD2 (Escherichia coli, UniProt P0AA25, D27I/F13A/L18H/Y71A); experiment: Inhibition of PZD2 catalyzed PNPA hydrolysis; format: biochemical, E. coli
T1 construct: made in house; host or cells: E. coli BL21 (DE3), vector pET-11a
Text: With this in mind, we assayed the inhibitory effects of p-nitrophenol glycerol (PNPG), a highly soluble compound with structural similarity to PNPA.

[2] = Steady state kinetics of PNPA hydrolysis by protozymes; format: biochemical; conditions: qualitative statement
[3] = Burst phase PNPA hydrolysis assay at high substrate concentration; conditions: 1.6 mM PNPA, 4 μM protein (FIG. 7)
Procedure: PZD2 was dialyzed extensively against 10 mM sodium phosphate buffer at pH 6.95. Kinetic experiments at 22° C. were started by the addition of substrate dissolved in acetonitrile to buffer solution with and without PZD2 (final protein concentration of 4 μM). Protein concentration was determined by UV absorbance in 6M guanidinium hydrochloride assuming an extinction coefficient of 12400 M^−1cm^−1 at 280 nm. Product concentration was determined by the change in absorbance at 400.5 nm assuming an extinction coefficient for deprotonated PNP of 19700 M^31 1cm^−1. Final acetronitrile concentration was 1% for all experiments. The steady state rate of hydrolysis by PZD2 was corrected for the buffer rate. Burst phase hydrolysis assays were performed at a substrate concentration of 1.6 mM. Protein concentration was 4 μM, with the exception of wild type thioredoxin. Wild type thioredoxin was assayed at 50 μM to improve signal to noise and extrapolated to a protein concentration of 4 μM. The dead time for this experiment was approximately 30 seconds.

T1 sequence (P0AA25 2-109 F13A/L18H/D27I/Y71A): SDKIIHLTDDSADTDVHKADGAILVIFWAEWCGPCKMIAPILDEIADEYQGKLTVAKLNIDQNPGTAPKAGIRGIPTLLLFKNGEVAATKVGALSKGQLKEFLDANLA

Compound: O=[N+]([O-])c1ccc(OP(=O)(O)O)cc1 [p-nitrophenyl phosphate]
- inhibition ([1]; concentrations up to 20 mM): did not show detectable inhibition

Compound: Wild type thioredoxin: thioredoxin protein from E. coli, scaffold; wild type sequence, H at position 6 with no binding site mutations
- enzyme-like activity toward PNPA hydrolysis [2]: essentially catalytically inert
- enzyme-like activity toward PNPA hydrolysis ([2]; listed as wild type protein): does not exhibit enzyme-like activity
- catalytic activity (PNPA hydrolysis) [3]: essentially inactive

Compound: p-nitrophenol glycerol [PNPG]
- Ki ([1]; fixed substrate concentration, read-out: K1 (Dixon analysis of inhibition)): 20 mM
- mode of inhibition (double reciprocal analysis) ([1]; presence and absence of inhibitor, 10 mM PNPG (FIG. 9)): competitive inhibition
